From patent US20200054541A1, “METHODS FOR REDUCING SWEAT AND/OR BODY ODOR, USING P[…] WITH AMINE AND/OR HYDROXYL GROUPS” (Henkel AG & Co. KGaA, priority 2017, published 2020)

Tested on: backs of 16 test persons
Assay: In vivo test for antiperspirant activity (sauna sweat test, gravimetric)
Design: species or system human
Conditions: 5.0% by weight aqueous solution, 75 μL applied on the back on four consecutive days; measured 24 h after last application; about 15 minutes at 80° C. in the sauna; gravimetric vs untreated site; 16 subjects
Procedure: 1. In Vivo Test for Antiperspirant Activity
To determine the antiperspirant effect, an antiperspirant study was performed on the backs of 16 test persons. A 5.0% by weight aqueous solution of a phosphonate compound of the Formula (I) with a=b=1, R=*—(CH2)x—PO3X^+Y^+ group where x=1 and X^+=Y^+=hydrogen or Na^+ was prepared for this purpose.
75 μL of the prepared solution were applied on the back of 16 subjects on one side next to the spine. After 5 minutes, the treated sites were covered with occlusive non-adsorbent film. These non-adsorbent pads were removed after 2 hours. The compositions were each applied to the backs of the subjects for four consecutive days in the manner previously described. 24 h after the last application of the composition, absorbent pads were applied to the backs of the subjects at the sites where the compositions were previously applied. Furthermore, pads, which served as a control, were also applied on the other side of the spine at the same height. After the subjects had sweat for about 15 minutes at 80° C. in the sauna, the amount of perspiration absorbed by the pads was determined gravimetrically, wherein each composition was compared with the corresponding untreated site on the back. The sweat reduction was determined from the gravimetric determination of the amount of sweat, wherein all determined values were statistically significant.

**Q.** For O=P(O)(O)CN(CP(=O)(O)O)CP(=O)(O)O [phosphonate compound of Formula (I), aminotrimethylene phosphonate], which sweat reduction is on record?
**A.** 10.1%
